Legend:
Rattus norvegicus [1] = organism: Rattus norvegicus; assay: Effective dose required to produce an increase in dP/dt5 by 1500 mmHg/s in rats; format: functional
Felis catus [2] = organism: Felis catus; assay: Effective dose required to produce an increase in dP/dt5 by 1500 mmHg/s in cats; format: functional
Rattus norvegicus [3] = assay: Maximum increase in dP/dt when administered intravenously in rats at 3 mg/kg dose.; format: functional; details: route intravenous
Canis familiaris [4] = assay: Time after which maximum increase in contractility was observed when administered orally in conscious dogs at 1 mg/kg; format: functional, Canis lupus familiaris; details: route oral
Canis familiaris [5] = assay: Amount of time during which increase in administered orally in conscious dogs at 1 mg/kg; format: functional, Canis lupus familiaris; details: route oral
Felis catus [6] = assay: Maximum increase in dP/dt when administered intravenously in cats at 0.1 mg/kg dose.; format: functional; details: route intravenous
Rattus norvegicus [7] = assay: Maximum increase in dP/dt when administered intravenously in rats at 0.1 mg/kg dose.; format: functional; details: route intravenous
Rattus norvegicus [8] = assay: Maximum increase in dP/dt when administered intravenously in rats at […] dose.; format: functional
Felis catus [9] = assay: Maximum increase in dP/dt when administered intravenously in cats at 0.03 mg/kg dose.; format: functional; details: route intravenous
Canis familiaris [10] = assay: Maximum increase in dP/dt when administered intravenously in dogs at 0.1 mg/kg.; format: functional, Canis lupus familiaris; details: route intravenous
Canis familiaris [11] = assay: Maximum increase in dP/dt60 when administered orally in dogs at dose 1 mg/kg; format: functional, Canis lupus familiaris; details: route oral
Canis familiaris [12] = organism: Canis familiaris; assay: Effective dose required to produce an increase in dP/dt5 by 1500 mmHg/s in dogs; format: functional, Canis lupus familiaris
Canis familiaris [13] = assay: Maximum increase in dP/dt when administered intravenously in dogs at 1 mg/kg dose.; format: functional, Canis lupus familiaris; details: route intravenous
Felis catus [14] = assay: Maximum increase in dP/dt when administered intravenously in cats at 0.3 mg/kg.; format: functional; details: route intravenous
Rattus norvegicus [15] = assay: Maximum increase in dP/dt when administered intravenously in rats at 1 mg/kg dose.; format: functional; design: unit not given here; details: route intravenous
Felis catus [16] = assay: Maximum increase in dP/dt when administered intravenously in cats at 3 mg/kg dose.; format: functional; details: route intravenous
Rattus norvegicus [17] = assay: Maximum increase in dP/dt when administered intravenously in rats at 10 mg/kg dose.; format: functional; design: unit not given here; details: route intravenous
Canis familiaris [18] = assay: Maximum increase in dP/dt when administered intravenously in dogs at 0.3 mg/kg dose.; format: functional, Canis lupus familiaris; details: route intravenous
Rattus norvegicus [19] = assay: Maximum increase in dP/dt when administered intravenously in rats Value in parenthesis denotes dose at which test performed; format: functional
Canis familiaris [20] = assay: Maximum increase in dP/dt when administered intravenously in dogs at 0.03 mg/kg dose.; format: functional, Canis lupus familiaris; details: route intravenous

SMILES | ED1.5 (Rattus norvegicus [1]) [mg/kg] | ED1.5 (Felis catus [2]) [mg/kg] | also measured
Cn1c(O)nc2cc3[nH]c(O)nc3cc21 | >3 |  | 
CC1(C)C(=O)Nc2cc3[nH]c(-c4cc5ccccc5[nH]4)nc3cc21 | >3 |  | 
COc1ccccc1-c1nc2cc3c(cc2[nH]1)C(C)(C)C(=O)N3 | >3 | >3 | 
COc1ccc(-c2nc3cc4c(cc3[nH]2)C(C)(C)C(=O)N4)cc1 | >3 |  | 
C/C=C/c1nc2cc3c(cc2[nH]1)C(C)(C)C(=O)N3 | >3 |  | 
CC1(C)C(=O)Nc2cc3[nH]c(-c4ccnc5ccccc45)nc3cc21 | 2 |  | Max (Rattus norvegicus [3]): 1.8 mHg s-1
CN1C(=O)C(C)(C)c2cc3[nH]c(-c4ccncc4)nc3cc21 | >3 |  | 
CC1(C)C(=O)Nc2cc3[nH]cnc3cc21 | 0.19 | 0.13 | Max (Rattus norvegicus [3]): 3.2 mHg s-1
CC1(C)C(=O)Nc2cc3[nH]c(-c4ccncc4)cc3cc21 | 0.16 | 0.11 | Max (Rattus norvegicus [3]): 3.4 mHg s-1
CC1(C)C(=O)Nc2cc3[nH]c(S)nc3cc21 | 0.55 | 0.06 | Max (Rattus norvegicus [3]): 3.5 mHg s-1
COc1cc(S(C)(=O)=O)ccc1-c1nc2cc3c(cc2[nH]1)C(C)(C)C(=O)N3 | 2 |  | Max (Rattus norvegicus [3]): 1.8 mHg s-1
CC1(C)C(=O)Nc2cc3[nH]c(N)nc3cc21 | >3 |  | 
Cn1c(-c2ccncc2)nc2cc3c(cc21)NC(=O)C3(C)C | >3 |  | 
Cn1c(O)nc2cc3c(cc21)C(C)(C)C(=O)N3 | 0.03 | 0.02 | Time (Canis familiaris [4]): 30 min; Duration (Canis familiaris [5]): > 5 h; Max (Felis catus [6]): 2.1 mmHg s-1; Max (Rattus norvegicus [7]): 2.4 mmHg s-1
CC1(C)C(=O)Nc2cc3[nH]c(O)cc3cc21 | 0.11 |  | Max (Rattus norvegicus [8]): 2 mmHg s-1
C=C(C)c1nc2cc3c(cc2[nH]1)C(C)(C)C(=O)N3 | >3 |  | 
CN1C(=O)C(C)(C)c2cc3nc(-c4ccncc4)n(C)c3cc21 | >3 |  | 
CC1(C)C(=O)Nc2cc3[nH]c(-c4ccc(O)nn4)nc3cc21 | 0.07 |  | Max (Rattus norvegicus [3]): 3.3 mHg s-1
CC1(C)C(=O)Nc2cc3[nH]c(-c4ccnnc4)nc3cc21 | 0.04 | 0.01 | Time (Canis familiaris [4]): 150 min; Max (Felis catus [9]): 2.4 mmHg s-1; Max (Canis familiaris [10]): 2.6 mmHg s-1; Max (Canis familiaris [11]): 2.3 mmHg s-1; Duration (Canis familiaris [5]): 5 h; ED1.5 (Canis familiaris [12]): 0.035 mg/kg
Oc1nc2cc3[nH]c(-c4ccncc4)nc3cc2[nH]1 | >3 |  | 
Oc1nc2cc3[nH]c(-c4ccncc4)nc3cc2s1 | 0.2 |  | 
CC1(C)C(=O)Nc2cc3[nH]c(-c4c[nH]cn4)nc3cc21 | 0.12 |  | Time (Canis familiaris [4]): 120 min; Duration (Canis familiaris [5]): 2 h; ED1.5 (Canis familiaris [12]): 0.07 mg/kg; Max (Canis familiaris [13]): 2.7 mHg s-1
COc1cc([S+](C)[O-])ccc1-c1nc2cc3c(cc2[nH]1)C(C)(C)C(=O)N3 (stereo not given) | >3 |  | 
CCCc1nc2cc3nc(O)oc3cc2[nH]1 | >3 |  | 
CCn1c(O)nc2cc3[nH]c(-c4ccnnc4)nc3cc21 | 0.04 | 0.02 | Max (Rattus norvegicus [3]): 3.2 mHg s-1

SMILES | ED1.5 (Rattus norvegicus [1]) [mg/kg] | ED1.5 (Felis catus [2]) [mg/kg] | also measured
CCCc1nc2cc3c(cc2[nH]1)C(C)(C)C(=O)N3 | 0.17 | 0.12 | Max (Felis catus [14]): 2 mmHg s-1; Max (Rattus norvegicus [15]): 2.5
CC1(C)C(=O)Nc2cc3[nH]c(-c4cnc5ccccc5c4)nc3cc21 | >3 |  | 
CC1(C)C(=O)Nc2cc3[nH]c(-c4cccs4)nc3cc21 | 0.12 | 0.07 | 
CC1(C)C(=O)Nc2cc3[nH]c(-c4ccccc4)nc3cc21 | 0.37 | 0.15 | Max (Felis catus [16]): 3 mmHg s-1; Duration (Canis familiaris [5]): 0 h; Max (Rattus norvegicus [17]): 4.2
CC1(C)C(=O)Nc2cc3[nH]c(-c4cncnc4)nc3cc21 | 0.045 | 0.02 | Max (Rattus norvegicus [3]): 3.1 mHg s-1
CCCn1c(O)nc2cc3[nH]c(-c4ccncc4)nc3cc21 | 1 |  | Max (Rattus norvegicus [3]): 1.6 mHg s-1
COc1ccc(-c2nc3cc(C4=NNC(=O)CC4C)ccc3[nH]2)cc1 (stereo not given) [PIMOBENDAN] | 1.3 | 0.6 | Max (Rattus norvegicus [3]): 2 mHg s-1; Time (Canis familiaris [4]): 30 min; Duration (Canis familiaris [5]): 6 h; ED1.5 (Canis familiaris [12]): 1.1 mg/kg; Max (Canis familiaris [13]): 1.3 mHg s-1
CN(C)c1ccc(-c2nc3cc4c(cc3[nH]2)C(C)(C)C(=O)N4)cc1 | >3 |  | 
Oc1nc2cc3nc(-c4ccncc4)[nH]c3cc2o1 | 0.52 | 0.06 | Max (Canis familiaris [18]): 2.6 mHg/s; Duration (Canis familiaris [5]): 0 h; ED1.5 (Canis familiaris [12]): 0.12 mg/kg; Max (Rattus norvegicus [17]): 4.1
CC1(C)C(=O)Nc2cc3nc(O)oc3cc21 | >3 |  | 
CC1(C)C(=O)Nc2cc3[nH]c(-c4ccc(-n5ccnc5)cc4)cc3cc21 | >3 |  | 
CC1(C)C(=O)Nc2cc3[nH]c(C4CCCCC4)nc3cc21 | >3 |  | 
CC1(C)C(=O)Nc2cc3[nH]c(-c4nc[nH]n4)nc3cc21 | 0.1 | 0.02 | Max (Rattus norvegicus [3]): 3.1 mHg s-1
Cn1c(O)nc2cc3[nH]c(-c4ccnnc4)nc3cc21 | 0.19 |  | Duration (Canis familiaris [5]): 0 h; Max (Rattus norvegicus [15]): 2.7
CC1(C)C(=O)Nc2cc3[nH]nnc3cc21 | 0.18 |  | Max (Rattus norvegicus [19]): 2.6 mmHg s-1
CC1(C)C(=O)Nc2cc3[nH]c(-c4ccc(O)cc4)nc3cc21 | >3 |  | 
CC1(C)C(=O)Nc2cc3[nH]c(-c4ccc[nH]4)nc3cc21 | 0.45 | 0.07 | Max (Felis catus [16]): 2.3 mmHg s-1; ED1.5 (Canis familiaris [12]): 0.32 mg/kg; Max (Rattus norvegicus [17]): 2.6; Max (Canis familiaris [13]): 1.9 mHg s-1
Cc1nc2cc3nc(O)oc3cc2[nH]1 | >3 |  | 
CC1(C)C(=O)Nc2cc3[nH]c(-c4cnsn4)nc3cc21 | 0.007 | 0.004 | Time (Canis familiaris [4]): 10 min; Max (Canis familiaris [11]): 3 mmHg s-1; Duration (Canis familiaris [5]): 3 h; ED1.5 (Canis familiaris [12]): 0.008 mg/kg; Max (Felis catus [6]): 2.6 mmHg s-1; Max (Rattus norvegicus [15]): 3.5; Max (Canis familiaris [20]): 2.3 mmHg s-1
CC1(C)C(=O)Nc2cc3[nH]c(C(F)(F)F)nc3cc21 | 0.13 | 0.08 | Max (Rattus norvegicus [3]): 2.3 mHg s-1
CC1(C)C(=O)Nc2cc3[nH]c(-c4ccco4)nc3cc21 | 0.07 | 0.06 | Max (Rattus norvegicus [3]): 2.9 mHg s-1; Time (Canis familiaris [4]): 40 min; Max (Canis familiaris [18]): 2.7 mHg/s; Duration (Canis familiaris [5]): 2 h; ED1.5 (Canis familiaris [12]): 0.06 mg/kg
CC1(C)C(=O)Nc2cc3[nH]c(-c4ccncc4)nc3cc21 [ADIBENDAN] | 0.01 | 0.01 | Time (Canis familiaris [4]): 45 min; Duration (Canis familiaris [5]): > 6 h; ED1.5 (Canis familiaris [12]): 0.2 mg/kg; Max (Rattus norvegicus [7]): 3.7 mmHg s-1; Max (Canis familiaris [13]): 2 mHg s-1
CC1(C)C(=O)Nc2cc3[nH]c(-c4ccc(-n5ccnc5)cc4)nc3cc21 | 1 | 0.25 | Max (Rattus norvegicus [17]): 2.8
CC1(C)C(=O)Nc2cc3[nH]c(-c4ccnnc4)cc3cc21 |  | 0.01 | 
Cc1cc2cc3c(cc2[nH]1)NC(=O)C3(C)C | >3 |  | 

From ChEMBL document CHEMBL1124518, “Nonsteroidal cardiotonics. 2. The inotropic activity of linear, tricyclic 5-6-5 fused heterocycles” (1989)
